Results published in patent US20180201594A1, “Compound pac-1 or salt thereof and pharmaceutical composition comprising same” (priority 2015, published 2018).
In brackets after ≈: the same amount, converted by molar mass.

Columns and labels:
[1] = Solubility comparison of ZYS-1 and PAC-1 needle crystal (HPLC); type: physicochemical; conditions: Water, room temperature
HGC-27 cells = experiment: Three-dimensional migration (Transwell assay), HGC-27; type: cell-based; conditions: for Cell number (transmembrane cells): 24 h, n = 9
Experimental: Starved cells were digested and collected, which were suspended in serum-free medium. The cell intensity was adjusted into 3×10^5 s cells/mL. 100 μL of the cell suspension was added into the upper chamber and 700 μL of medium with 10% serum to the lower chamber per well. According to the experimental design, 50 μL serum-free medium was added per well for the control group, 50 μL of drug-containing serum-free medium was added for the administration groups. They were continued to be cultured in the incubator for another 24 h. The upper chamber was taken, with methanol fixation for 30 min, dyed with Giemsa stain for 30 min, rinsed with clean water twice. The cells on the bottom membrane surface of the upper chamber were carefully wiped off with a wet cotton swab, dried in the air. With the bottom up, they were transferred onto glass slide and sealed with neutral gum. Under the microscope, nine random fields were taken and the transmembrane cells therein were counted. The average values were statistically calculated.

NF-κB = NF-κB protein expression in HGC-27 cells (immunofluorescence); type: cell-based; conditions: n = 6
Experimental: (§1) The sterilized cell transfer membrane was taken and placed into a 24-well plate, which was seeded with 1 mL (1×10^5 cells/mL) cell suspension, and cultured for 24 h. Drug-containing medium was added, The negative control groups and administration groups were set, with the experimental groups intervened for 24-48 h. The plate was washed with PBS, and fixed with 4% paraformaldehyde for 15 min. It was treated with 0.1% TritonX-100, and washed with PBS, blocked with 1:10 diluted normal serum blocking solution for 15 min. The plate was added 1:100 diluted primary antibody, placed at 4° C. overnight. The plate was washed with PBS, to which 1:100 diluted secondary antibodies was added and incubated at room temperature for 30 min. The plate was washed with PBS, to which 1:100 diluted SABC-FITC was added, and re-incubated at room temperature for additional 30 min. The unbound FITC was washed with PBS. We observed and taken pictures under fluorescence microscope, and analyzed the fluorescence intensity by Bioflux Montage software. 6 fields were selected randomly under microscope for each group and the integral optical density value of cells was calculated.

VEGF = VEGF protein expression in HGC-27 cells (immunofluorescence); type: cell-based; conditions: n = 6
Experimental: as §1

[2] = test system: Murine Lewis lung carcinoma cell line; experiment: Spontaneous metastatic cancer in mice (Lewis lung carcinoma); conditions: for Inhibition rate of metastasis loci / Metastasis rate / Number of lung (metastasis loci) / Tumor weight / tumor inhibition rate: intragastric administration
Experimental: The tumors growed to 1000 mm^3 and then were randomly divided into groups for adminstration, the groups were treated after three weeks. A total of 4 groups including ZYS-1 high, medium and low (100, 50, 25 mg/kg/d, intragastric administration) and positive control (gefitinib 100 mg/kg/d, intragastric administration) groups were set. The efficacy of ZYS-1 was evaluated in terms of general survival status (food intake, activity, hair etc.), tumor inhibition rate and metastasis inhibition rate.
The curve of tumor growth was plotted. On the next day after completing the treatment cycle, the animal was weighed. After collecting the blood, the animal was sacrificed. The tumor tissue was stripped, weighed, and the tumor inhibition rate was calculated. Store at −80 ? .
Metastasis rate=Number of mice with metastasis/Total number of mice×100%
Inhibition rate of metastasis loci=(average number of metastasis loci in the control group−average number of metastasis loci in the experimental group)/average number of metastasis loci in the control group×100%

[3] = Homo sapiens, HGC-27, 24 h, read-out: Inhibition Rate

## C=CCc1cccc(/C=N/NC(=O)CN2CCN(Cc3ccccc3)CC2)c1O [ZYS-1, 1-Piperazineacetic acid, 4-(phenylmethyl)-2-[[2-hydroxy-3-(2-propen-1-yl)phenyl]methylene]]
[1]
  Solubility: 5.6 µg/mL (≈ 14.3 µM)
HGC-27 cells; 2 μM
  Cell number (transmembrane cells): 33.00 ± 10.00
HGC-27 cells; 4 μM
  Cell number (transmembrane cells): 26.30 ± 13.37
HGC-27 cells; 8 μM
  Cell number (transmembrane cells): 22.44 ± 9.82
HGC-27 cells; [3]
  inhibition at 2 µM: 24.6%
  inhibition at 4 µM: 39.9%
  inhibition at 8 µM: 48.7%
NF-κB; 4 μM
  NF-κB protein expression (integral optical density value): 43.83 ± 1.06
NF-κB; 8 μM
  NF-κB protein expression (integral optical density value): 40.94 ± 0.46
VEGF; 4 μM
  VEGF protein expression (integral optical density value): 31.17 ± 0.24
VEGF; 8 μM
  VEGF protein expression (integral optical density value): 30.51 ± 0.32
[2]; 25 mg/kg/d
  Inhibition rate of metastasis loci: 54.68%
  Metastasis rate: 100%
  Number of lung (metastasis loci): 6.3 ± 3.3
  Tumor weight: 1.9579 ± 0.8346 g
  tumor inhibition rate: 50.63%
[2]; 50 mg/kg/d
  Inhibition rate of metastasis loci: 61.15%
  Metastasis rate: 100%
  Number of lung (metastasis loci): 5.4 ± 2.6
  Tumor weight: 1.5844 ± 0.8288 g
  tumor inhibition rate: 60.05%
[2]; 100 mg/kg/d
  Metastasis rate: 100%
  Number of lung (metastasis loci): 3.8 ± 1.9
  Tumor weight: 1.0209 ± 0.7332 g
  tumor inhibition rate: 74.26%
[2]; high and medium dose (100, 50 mg/kg/d), tumor-bearing mice
  Hair Condition: shiny coat
